Experimental findings from patent publication EP4786454A1, “HETEROARYL DERIVATIVE AND USE THEREOF” (priority 2023, dated 2025) are described below.

A short description of data set [1]: Plasma protein binding rate, equilibrium dialysis (monkey plasma). Particulars: c (cynomolgus monkey plasma), dialysis 4 hours at 37 °C, read-out: Unbound PPB%. It is filed as in vitro ADME, cynomolgus monkeys. The protocol: (§1) The protein binding rates of the compounds in the plasma of CD-1 mice, Sprague-Dawley rats, beagle dogs, cynomolgus monkeys, and human were determined using equilibrium dialysis method.
(§2) Commercially available plasma, dual-layer dialysis membrane, and equilibrium dialysis device.
(§3) The dual-layer dialysis membrane was soaked in ultrapure water for about 1 hour, removed and then divided into two parts. It was then soaked in an ethanol:water (20:80, v:v) solution for 20 minutes or placed at 2 to 8 °C, and it was valid for 1 month. Before starting the assay, the dialysis membrane was rinsed twice with ultrapure water and then soaked in ultrapure water for another 20 minutes for later use.
(§4) On the day of assay, the frozen plasma of CD-1 mice, Sprague-Dawley rats, beagle dogs, cynomolgus monkeys, and human was thawed in running cold tap water. After the plasma was completely thawed, the plasma was centrifuged at 3220×g for 5 minutes, and the suspended substances and precipitates in it were removed. The pH of the plasma was determined. The plasma with a pH in the range of 7.4 ± 0.1 was directly used, or the plasma with a pH in the range of 7.4 ± 0.1 after an adjustment with 1% phosphoric acid or 1M sodium hydroxide was used.
(§5) Preparation process of plasma samples: 597 µL of blank plasma from each of the above five species was taken, respectively. 3 µL of a compound or warfarin working solution was added, and the mixture was mixed thoroughly to give a plasma sample with a compound concentration of 2 µM and a warfarin concentration of 2 µM (n=1). The concentration of the organic phase DMSO was 0.5%. The sample was thoroughly mixed before proceeding to the next step.
(§6) Preparation process of T0 samples: 50 µL of a plasma sample containing the compound and warfarin was transferred to a sample receiving plate (n=3), and 50 µL of blank PBS was immediately added. Then, 500 µL of stop solution was added to the T0 sample of the compound and warfarin, and the mixture was stored at 2 to 8 °C, waiting to be processed later together with other dialysis-processed samples.
(§7) Dialysis process of plasma samples: 100 µL of a compound (2 µM) and warfarin (2 µM) plasma sample was added to the donor of each dialysis well (n=3), and 100 µL of blank PBS was added to the corresponding receiver of the dialysis well. The dialysis plate was placed in a 5% CO2 incubator, and incubated at 37 °C with shaking at approximately 100 rpm for 4 hours.
(§8) After the dialysis was completed, 50 µL of dialysis-processed PBS sample and dialysis-processed plasma sample (n=3) were transferred to a new 96-well plate (sample receiving plate). The corresponding volume of the corresponding blank plasma or PBS was added to the sample to make the final volume of each sample well 100 µL, with a plasma to PBS volume ratio of 1:1. All the samples were analyzed by LC-MS/MS after protein precipitation.
(§9) The formulas for calculating the unbound fraction (%Unbound), bound fraction (%Bound) and recovery fraction (%Recovery) of a compound are as follows: %Unbound = 100 ×F / T %Bound = 100 - %Unbound %Recovery = 100 ×(F + T)/ T0 wherein F is the concentration of the compound at the receiver of dialysis; T is the concentration of the compound at the supply end of dialysis; and T0 is the concentration of the compound in the plasma at time zero.

A short description of data set [2]: Stability in liver microsomes (monkey). It is filed as in vitro ADME, cynomolgus monkeys. The settings on record: c (cynomolgus monkey liver microsomes), 0.5 mg/mL, read-out: MMS Clint. The protocol:
The purpose of this study was to evaluate the phase I metabolic stability of the assay sample in liver microsomes from CD-1 mice, Sprague-Dawley (SD) rats, beagle dogs, cynomolgus monkeys, and human.
The animal and human liver microsomes used in this assay system were purchased from Xenotech, Corning, or other qualified suppliers.
Preparation of buffer: 73.21 g of potassium phosphate dibasic trihydrate and 10.78 g of potassium dihydrogen phosphate were dissolved in 4000 mL of ultrapure water. The pH of the solution was adjusted to the range of 7.40 ± 0.10 using 10.0% phosphoric acid or 1.00 M potassium hydroxide. Its final concentration was 100 mM.
Preparation of working solutions: An assay sample powder was prepared into a 10.0 mM stock solution with DMSO, and then further diluted with a suitable organic solvent. The control compounds testosterone, diclofenac, and propafenone were prepared into 10.0 mM stock solutions using DMSO, and then further diluted with a suitable organic solvent.
Preparation of liver microsome solution: Microsomes of various species were diluted with 100 mM potassium phosphate buffer to a working solution of 0.56 mg/mL. The final concentration of microsomes in the reaction system was 0.500 mg/mL. Detailed preparation procedures were described in the experimental records.
Preparation of reduced nicotinamide adenine dinucleotide phosphate (NADPH) solution: An appropriate amount of reduced nicotinamide adenine dinucleotide phosphate was dissolved in magnesium chloride solution, and the mixture was shaken to mix well. The final concentrations in the reaction system were 1.00 mM NADPH and 1.00 mM magnesium chloride, respectively. Detailed preparation procedures were described in the experimental records.
Preparation of stop solution: The stop solution was prepared using acetonitrile containing internal standards (tolbutamide and labetalol). The prepared stop solution was stored at 2.0 to 8.0 °C in a refrigerator. Detailed preparation procedures were described in the experimental records. […]
Background: Liver microsomes are vesicles of endoplasmic reticulum, rich in cytochrome P450 enzymes.

A short description of data set [3]: Plasma protein binding rate, equilibrium dialysis (human plasma). It is filed as in vitro ADME. Particulars: dialysis 4 hours at 37 °C, read-out: Unbound PPB%. Here is the method:
as §1, §2, §3, §4, §5, §6, §7, §8, §9

For `CC(C)(C)CC(=O)Nc1nc2c(F)cc(C#N)cn2c1-c1ccc(OC(F)(F)F)cc1` [Compound 1], the fraction unbound at 4 h, 2 µM in data set [1] stood at 0.072; in data set [3], 0.051. Also, the CLint scaled at 1 µM in data set [2] was found to be 130 mL/min/kg.
Turning to `CC(C)(C)CC(=O)Nc1nc2c(F)cc(C#N)cn2c1C1=CCCC1` [Compound 3], the fraction unbound at 4 h, 2 µM was found to be 0.134 in data set [1] and 0.109 in data set [3]. Further, in data set [2], the CLint scaled at 1 µM was determined as 129 mL/min/kg.
Consider `CC(C)(C)CC(=O)Nc1nc2c(F)cc(C#N)cn2c1C12CC(C1)C2` [Compound 5], for which the figures for the fraction unbound at 4 h, 2 µM in data set [1] and in data set [3] were 0.159 and 0.231, respectively. Further, the CLint scaled at 1 µM in data set [2] turned out to be 15.3 mL/min/kg.
